This note sets out measurements from paper PMC8891108, “Development and characterization of anti-fibrotic natural compound similars with improved effectivity” (Basic Research in Cardiology, 2022).

The term EC50 denotes the concentration needed to bring the measured effect to its halfway point.

What all share (type): cell-based
Data set [1] has as its system human cardiac fibroblasts (HCF). The data set is described as follows: Caspase-3/7 activation (Caspase-Glo) in HCF. As to conditions: within the tested concentration range. The method, then: (§1) As contrast to activity, toxicity of top six similars and lead compounds was determined by a multiplex measurement of caspase activation and membrane integrity (using LDH release and inclusion of the CellTox Green dye). Briefly, HCFs were seeded as before. After 24 h, cells were treated with serial dilutions of compounds with additional 0.1% CellTox™ Green dye (Promega, #G8741). After 24 h incubation, 5 µL medium was removed from each well, mixed with 95 µL LDH Storage buffer (Promega, #J2380) and frozen for later analysis. 95 µL Caspase-Glo® 3/7 reagent (Promega, #G8090) was added to each well, and after 60 min of incubation luminescence was measured in a Synergy HT. Afterwards, micrographs of brightfield and green fluorescence were taken using a Cytation 1 (BioTek) automated microscope maintaining 37 °C and 5% CO2. Wells were manually checked for co-localization of fluorescence signal with cells in brightfield. On the next day, supernatants in LDH Storage buffer were thawed, and 50 µL was mixed with 50 µL of LDH Detection reagent and luminescence was measured after 60 min of incubation. Dose–response curves were determined as described before. To determine toxicity of the top 3 anti-fibrotic similars in hiPS-CM, 20,000 cells/well were seeded, treated and analysed as above, devoid the fluorescent dye steps.

Data set [2] has the same test system. The data set is described as follows: TaqMan Array Human MicroRNA Cards, miRNA deregulation in HCF. On the procedure: PCR amplification of array cards was performed as instructed. After quality control of all real-time qPCRs, cT values were exported and all runs were merged into a single excel file. Recommended baseline correction using relative thresholds to correct for varying reconstitution rates of different Taqman probes was not performed. Low-expressed miRNAs with cT > 32 in more than 1 replicate per treatment were excluded from analysis, before samples were normalized to column mean. Multiple unpaired t tests were performed using GraphPad Prism, deregulations were accepted as discoveries if FDR ≤ 1% (using BKY adjustment). As miRNA identifiers were based on miRbase v14, we converted them to the latest v22 for further analysis using miRBaseConverter. 747 sequences could be converted correctly, while the remaining miRNAs were removed from miRbase due to incorrect annotation (e.g. the sequences of hsa-miR-886-3p and hsa-miR-886-5p are part of VTRNA2-1 [44]) or no evidence of human expression.
For orientation: Real-time PCR tracks product formation cycle by cycle.

Data set [3] has the same test system. The data set is described as follows: BrdU incorporation, HCF proliferation (first screen). As to conditions: Homo sapiens, Cardiac fibroblast, 24 h, read-out: Effective conc. (BrdU), EC50 by BrdU assay. The method, then:
96-well plates (TPP) were coated with 0.1% gelatine and seeded with 7500 HCFs/well. After 72 h, medium was exchanged with serial dilutions of compounds in FGM-3 + 1.6% DMSO + 1% 5-bromo-2′-deoxyuridine (BrdU, Roche, #11647229001), prepared in additional plates. After 24 h, cells were washed twice with DPBS (Gibco, #14190144) before incubation with anti-BrdU:POD (Roche, #11647229001) for 60 min (RT). Readout was performed by measurement of absorbance at 370 nm + 490 nm in a Synergy HT (BioTek) microplate reader. […] As validation, HCF were seeded as before, but treated with serial dilutions of compounds after 24 h. […] After 60 min of incubation (37 °C, in the dark), absorbance at 450 nm + 630 nm was measured maintaining 37 °C and analysed as described before.
To assess screening quality, quality acceptance criteria Z′ (Z prime), SW (signal window), S:B (signal-to-background), S:N (signal-to-noise) were determined following. Average Z′ ≥ 0.5 and SW ≥ 2 were required to accept the screening overall, whereas single plates were rejected from analysis if Z′ < 0.3 or SW < 1.
A general note: Dividing cells build labelled thymidine or BrdU into new DNA.

Data set [4] has the same test system. The data set is described as follows: In vitro migration (scratch) assay of HCF. As to conditions: 10 × EC50. On the procedure:
To assess migrative capabilities of HCF, cells were stained with 1:1000 1,1′-Dioctadecyl-3,3,3′,3′-Tetramethylindotricarbocyanine Iodide (DIR′) dye in FGM-3 for 20 min at 37 °C. Cells were washed with DPBS and seeded into 0.1% gelatine-coated 96-well plates at 30,000 cells per well. […] After 17 h and 24 h, plates were imaged again. Rate of migration was determined using the migrative index (MI).

For data set [5], the system named is human iPS-derived cardiomyocytes (hiPS-CM). The data set is described as follows: Caspase-3/7 activation in hiPS-CM. The settings on record: maximal available concentration. On the procedure:
as §1

Data set [6] shares this test system. The data set is described as follows: LDH release in hiPS-CM. The settings on record: maximal available concentration. On the procedure: as §1
Background: LDH in the medium is a marker of cell lysis.

The mark [7] stands for this setting: mean of DMSO minus mean of treatment.

Molecules are shown by their SMILES.

Turning to `C[C@]12CC[C@H](O)C[C@H]1CC[C@@H]1[C@@H]2CC[C@]2(C)[C@@H](c3ccc(=O)oc3)CC[C@]12O` [Bufalin, bufalin], the “induction of Caspase-3/7” value in data set [1] was “dose-dependent induction of Caspase-3/7”. Moreover, in data set [2] (cT normalized to column mean), the “Mean of treatment, hsa-miR-125a-5p-002198” value was -1.094; the “Mean of treatment, hsa-miR-132-000457” value is -3.644; the “Mean of treatment, hsa-miR-146a-000468” value was -6.478; the “Mean of treatment, hsa-miR-886-3p-002194” value is listed as -0.5419. Besides, in data set [2] (setting [7]), the “Difference / ΔCT, hsa-miR-125a-5p-002198” value is -1.48; the “Difference / ΔCT, hsa-miR-132-000457” value was determined as 1.1; the “Difference / ΔCT, hsa-miR-146a-000468” value was -1.167; the “Difference / ΔCT, hsa-miR-886-3p-002194” value is -2.302. In data set [3], the EC50 turned out to be 2.1 nM. Also, the HCF migration result in data set [4] is on record as “nearly complete lack of migration within the first half hour”.

On to `COc1cccc2c1C(=O)c1c(O)c3c(c(O)c1C2=O)C[C@@](O)(C(=O)CO)C[C@@H]3O[C@H]1C[C@H](N)[C@H](O)[C@H](C)O1` [doxorubicin], for which, in data set [5], the Caspase-3/7 activation result is recorded as “Caspase-3/7 activation”. The LDH release result in data set [6] is given as “increased LDH release”.
